Laboratory results taken from PubChem BioAssay AID2060600 (Molecular Pharmacology Branch, DTP, NCI, 2025).

Tested on: 996289-038-R-J1-PDC complex spheroid viability
Assay: Anticancer human tumor 996289-038-R-J1-PDC patient-derived colon adenocarcinoma cell line growth inhibition [CLK]
Settings: for IC50: curve of first compound; for viability, T/C: stronger effect = lower value
How it was run: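 Patient-derived tumor cells grown as complex spheroids with HUVEC endothelial cells and mesenchymal stem cells, treated with drug combinations. Concentrations descend in half-log steps from near clinical Cmax, or from 10 microM if Cmax unknown.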

[1] = second compound 0.0316 µM, first compound 0.00949 µM
[2] = second compound 0.0316 µM, first compound 0.03 µM
[3] = second compound 0.0316 µM, first compound 0.0949 µM
[4] = second compound 0.0316 µM, first compound 0.3 µM
[5] = second compound 0.1 µM, first compound 0.00949 µM
[6] = second compound 0.1 µM, first compound 0.03 µM
[7] = second compound 0.1 µM, first compound 0.0949 µM
[8] = second compound 0.1 µM, first compound 0.3 µM
[9] = second compound 0.316 µM, first compound 0.00949 µM
[10] = second compound 0.316 µM, first compound 0.03 µM
[11] = second compound 0.316 µM, first compound 0.0949 µM
[12] = second compound 0.316 µM, first compound 0.3 µM
[13] = second compound 1 µM, first compound 0.00949 µM
[14] = second compound 1 µM, first compound 0.03 µM
[15] = second compound 1 µM, first compound 0.0949 µM
[16] = second compound 1 µM, first compound 0.3 µM
[17] = second compound 3.16 µM, first compound 0.00949 µM
[18] = second compound 3.16 µM, first compound 0.03 µM
[19] = second compound 3.16 µM, first compound 0.0949 µM
[20] = second compound 3.16 µM, first compound 0.3 µM
[21] = second compound 10 µM, first compound 0.00949 µM
[22] = second compound 10 µM, first compound 0.03 µM
[23] = second compound 10 µM, first compound 0.0949 µM
[24] = second compound 10 µM, first compound 0.3 µM
[25] = second compound 0.0316 µM, first compound 0.0316 µM
[26] = second compound 0.0316 µM, first compound 0.1 µM
[27] = second compound 0.0316 µM, first compound 0.316 µM
[28] = second compound 0.0316 µM, first compound 1 µM
[29] = second compound 0.0316 µM, first compound 3.16 µM
[30] = second compound 0.0316 µM, first compound 10 µM
[31] = second compound 0.1 µM, first compound 0.0316 µM
[32] = second compound 0.1 µM, first compound 0.1 µM
[33] = second compound 0.1 µM, first compound 0.316 µM
[34] = second compound 0.1 µM, first compound 1 µM
[35] = second compound 0.1 µM, first compound 3.16 µM
[36] = second compound 0.1 µM, first compound 10 µM
[37] = second compound 0.316 µM, first compound 0.0316 µM
[38] = second compound 0.316 µM, first compound 0.1 µM
[39] = second compound 0.316 µM, first compound 0.316 µM
[40] = second compound 0.316 µM, first compound 1 µM
[41] = second compound 0.316 µM, first compound 3.16 µM
[42] = second compound 0.316 µM, first compound 10 µM
[43] = second compound 1 µM, first compound 0.0316 µM
[44] = second compound 1 µM, first compound 0.1 µM
[45] = second compound 1 µM, first compound 0.316 µM
[46] = second compound 1 µM, first compound 1 µM
[47] = second compound 1 µM, first compound 3.16 µM
[48] = second compound 1 µM, first compound 10 µM
[49] = second compound 3.16 µM, first compound 0.0316 µM
[50] = second compound 3.16 µM, first compound 0.1 µM
[51] = second compound 3.16 µM, first compound 0.316 µM
[52] = second compound 3.16 µM, first compound 1 µM
[53] = second compound 3.16 µM, first compound 3.16 µM
[54] = second compound 3.16 µM, first compound 10 µM
[55] = second compound 10 µM, first compound 0.0316 µM
[56] = second compound 10 µM, first compound 0.1 µM
[57] = second compound 10 µM, first compound 0.316 µM
[58] = second compound 10 µM, first compound 1 µM
[59] = second compound 10 µM, first compound 3.16 µM
[60] = second compound 10 µM, first compound 10 µM
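Note: spheroids exposed to the agents for 7 days before readout.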

C=CC(=O)Nc1cc(Nc2nccc(-c3cn(C)c4ccccc34)n2)c(OC)cc1N(C)CCN(C)C + CN1CCN(c2cc(C(=O)Nc3cc4cc(-c5cnn(C)c5)ccc4cn3)ccn2)CC1
IC50 (second compound 0.0316 µM): > 300 nM | IC50 (second compound 0.1 µM): > 300 nM | IC50 (second compound 0.316 µM): 91 nM | IC50 (second compound 1 µM): < 0.949 nM | IC50 (second compound 3.16 µM): < 0.949 nM | IC50 (second compound 10 µM): < 0.949 nM | viability, T/C (second compound 0.0316 µM, first compound 0.000949 µM): 104% | viability, T/C (second compound 0.0316 µM, first compound 0.003 µM): 104% | viability, T/C [1]: 105% | viability, T/C [2]: 103% | viability, T/C [3]: 99.8% | viability, T/C [4]: 74.7% | viability, T/C (second compound 0.1 µM, first compound 0.000949 µM): 93.7% | viability, T/C (second compound 0.1 µM, first compound 0.003 µM): 93.7% | viability, T/C [5]: 91.2% | viability, T/C [6]: 84.4% | viability, T/C [7]: 86% | viability, T/C [8]: 65.9% | viability, T/C (second compound 0.316 µM, first compound 0.000949 µM): 74.2% | viability, T/C (second compound 0.316 µM, first compound 0.003 µM): 69% | viability, T/C [9]: 63.5% | viability, T/C [10]: 56.8% | viability, T/C [11]: 53.5% | viability, T/C [12]: 37.2% | viability, T/C (second compound 1 µM, first compound 0.000949 µM): 6.28% | viability, T/C (second compound 1 µM, first compound 0.003 µM): 6.22% | viability, T/C [13]: 7.21% | viability, T/C [14]: 6.93% | viability, T/C [15]: 4.43% | viability, T/C [16]: 1.67% | viability, T/C (second compound 3.16 µM, first compound 0.000949 µM): 0.79% | viability, T/C (second compound 3.16 µM, first compound 0.003 µM): 1.11% | viability, T/C [17]: 1.16% | viability, T/C [18]: 1.29% | viability, T/C [19]: 0.93% | viability, T/C [20]: 0.71% | viability, T/C (second compound 10 µM, first compound 0.000949 µM): 1.47% | viability, T/C (second compound 10 µM, first compound 0.003 µM): 0.58% | viability, T/C [21]: 0.99% | viability, T/C [22]: 1.04% | viability, T/C [23]: 0.51% | viability, T/C [24]: 1.04%

CC1(C)CCC(CN2CCN(c3ccc(C(=O)NS(=O)(=O)c4ccc(NCC5CCOCC5)c([N+](=O)[O-])c4)c(Oc4cnc5[nH]ccc5c4)c3)CC2)=C(c2ccc(Cl)cc2)C1 + CN1CCN(c2cc(C(=O)Nc3cc4cc(-c5cnn(C)c5)ccc4cn3)ccn2)CC1
IC50 (second compound 0.0316 µM): 8460 nM | IC50 (second compound 0.1 µM): 6780 nM | IC50 (second compound 0.316 µM): 5350 nM | IC50 (second compound 1 µM): < 31.6 nM | IC50 (second compound 3.16 µM): < 31.6 nM | IC50 (second compound 10 µM): < 31.6 nM | viability, T/C [25]: 107% | viability, T/C [26]: 92.1% | viability, T/C [27]: 99.5% | viability, T/C [28]: 104% | viability, T/C [29]: 111% | viability, T/C [30]: 41% | viability, T/C [31]: 93.1% | viability, T/C [32]: 92.7% | viability, T/C [33]: 91.3% | viability, T/C [34]: 102% | viability, T/C [35]: 92.1% | viability, T/C [36]: 28.4% | viability, T/C [37]: 72.2% | viability, T/C [38]: 70.9% | viability, T/C [39]: 74.3% | viability, T/C [40]: 71.2% | viability, T/C [41]: 80.5% | viability, T/C [42]: 21.6% | viability, T/C [43]: 5.73% | viability, T/C [44]: 6.71% | viability, T/C [45]: 6.34% | viability, T/C [46]: 6.11% | viability, T/C [47]: 7.84% | viability, T/C [48]: 4.96% | viability, T/C [49]: 3.72% | viability, T/C [50]: 2.29% | viability, T/C [51]: 1.42% | viability, T/C [52]: 3.37% | viability, T/C [53]: 1.39% | viability, T/C [54]: 1.49% | viability, T/C [55]: 2.97% | viability, T/C [56]: 0.51% | viability, T/C [57]: 2.24% | viability, T/C [58]: 0.81% | viability, T/C [59]: 0.61% | viability, T/C [60]: 0.62%

NC(=O)C(=Cn1cnc(-c2cc(C(F)(F)F)cc(C(F)(F)F)c2)n1)c1cncnc1 + CN1CCN(c2cc(C(=O)Nc3cc4cc(-c5cnn(C)c5)ccc4cn3)ccn2)CC1
IC50 (second compound 0.0316 µM): 53.7 nM | IC50 (second compound 0.1 µM): 29.4 nM | IC50 (second compound 0.316 µM): < 9.49 nM | IC50 (second compound 1 µM): < 9.49 nM | IC50 (second compound 3.16 µM): < 9.49 nM | IC50 (second compound 10 µM): < 9.49 nM | viability, T/C [1]: 73.6% | viability, T/C [2]: 64% | viability, T/C [3]: 36.1% | viability, T/C [4]: 18.6% | viability, T/C (second compound 0.0316 µM, first compound 0.949 µM): 10.6% | viability, T/C (second compound 0.0316 µM, first compound 3 µM): 11.7% | viability, T/C [5]: 68% | viability, T/C [6]: 49.7% | viability, T/C [7]: 24.9% | viability, T/C [8]: 11.1% | viability, T/C (second compound 0.1 µM, first compound 0.949 µM): 4.64% | viability, T/C (second compound 0.1 µM, first compound 3 µM): 5.12% | viability, T/C [9]: 33.9% | viability, T/C [10]: 19.1% | viability, T/C [11]: 2.74% | viability, T/C [12]: 0.87% | viability, T/C (second compound 0.316 µM, first compound 0.949 µM): 1.43% | viability, T/C (second compound 0.316 µM, first compound 3 µM): 1.38% | viability, T/C [13]: 0.93% | viability, T/C [14]: 0.76% | viability, T/C [15]: 0.81% | viability, T/C [16]: 1.31% | viability, T/C (second compound 1 µM, first compound 0.949 µM): 1.15% | viability, T/C (second compound 1 µM, first compound 3 µM): 2.01% | viability, T/C [17]: 1.17% | viability, T/C [18]: 0.72% | viability, T/C [19]: 1.2% | viability, T/C [20]: 1.12% | viability, T/C (second compound 3.16 µM, first compound 0.949 µM): 1.5% | viability, T/C (second compound 3.16 µM, first compound 3 µM): 2.18% | viability, T/C [21]: 0.52% | viability, T/C [22]: 0.5% | viability, T/C [23]: 0.74% | viability, T/C [24]: 0.52% | viability, T/C (second compound 10 µM, first compound 0.949 µM): 0.45% | viability, T/C (second compound 10 µM, first compound 3 µM): 1.52%

Nc1ccccc1NC(=O)c1ccc(CNC(=O)OCc2cccnc2)cc1 + CN1CCN(c2cc(C(=O)Nc3cc4cc(-c5cnn(C)c5)ccc4cn3)ccn2)CC1
IC50 (second compound 0.0316 µM): 6350 nM | IC50 (second compound 0.1 µM): 5030 nM | IC50 (second compound 0.316 µM): 2330 nM | IC50 (second compound 1 µM): < 31.6 nM | IC50 (second compound 3.16 µM): < 31.6 nM | IC50 (second compound 10 µM): < 31.6 nM | viability, T/C [25]: 99.7% | viability, T/C [26]: 103% | viability, T/C [27]: 91.4% | viability, T/C [28]: 81.7% | viability, T/C [29]: 61.8% | viability, T/C [30]: 42.3% | viability, T/C [31]: 110% | viability, T/C [32]: 88.1% | viability, T/C [33]: 83.7% | viability, T/C [34]: 71.1% | viability, T/C [35]: 60% | viability, T/C [36]: 38.3% | viability, T/C [37]: 70.1% | viability, T/C [38]: 64.8% | viability, T/C [39]: 64.3% | viability, T/C [40]: 60.4% | viability, T/C [41]: 46.4% | viability, T/C [42]: 20.9% | viability, T/C [43]: 8.94% | viability, T/C [44]: 5.54% | viability, T/C [45]: 6.13% | viability, T/C [46]: 3.31% | viability, T/C [47]: 1.46% | viability, T/C [48]: 1.42% | viability, T/C [49]: 0.74% | viability, T/C [50]: 0.78% | viability, T/C [51]: 0.83% | viability, T/C [52]: 2.18% | viability, T/C [53]: 1.99% | viability, T/C [54]: 1.71% | viability, T/C [55]: 0.41% | viability, T/C [56]: 1.24% | viability, T/C [57]: 1.06% | viability, T/C [58]: 0.6% | viability, T/C [59]: 0.7% | viability, T/C [60]: 1.88%
